# Data as given in ChEMBL document CHEMBL4819120, “Identification of non-covalent 3C-like protease inhibitors against severe acute respiratory syndrome coronavirus-2 via virtual screening of a Korean compound library” (Bioorg Med Chem Lett, 2021).
# Experiments:
# [1] = Inhibition of SARS-CoV-2 3CL protease using DABCYL-KTSAVLQ-SGFRKME-EDANS fluorogenic peptide as substrate by fluorescence assay; design: species or system Severe acute respiratory syndrome coronavirus 2
# Vero C1008 = assay: Cytotoxicity against African green monkey Vero E6 cells; assay type: cell-based; details: chlorocebus sabaeus
# SARS-CoV-2 = assay: microbe, parasite or virus in culture; details: Severe acute respiratory syndrome coronavirus 2, Vero C1008
# Description: Antiviral activity against SARS-CoV-2 infected in monkey Vero E6 cells
SMILES,IC50 [1] [µM],CC50 (Vero C1008) [µM],EC50 (SARS-CoV-2) [µM]
Cc1cc(C)cc(Nc2nc(C)cc3nn(CC(=O)Nc4cc(F)ccc4F)c(=O)n23)c1,8,469,141
Cc1ccc(Cl)cc1NC(=O)Cn1nc2c(Oc3ccc(C(C)C)cc3)nccn2c1=O,8.9,,
Cc1ccc(Cn2c(=O)c3ccccc3n3c(=O)n(CC(=O)Nc4ccc(F)cc4F)nc23)cc1,9.5,,
Cc1cc(C)cc(Nc2nc(C)cc3nn(CC(=O)Nc4ccccc4F)c(=O)n23)c1,10.9,,
O=C(Cn1c2ccccc2n2c(=O)cc(-c3ccc(Cl)cc3)nc12)Nc1ccc(F)cc1F,5.7,454,39.9
Cc1cc2nn(CC(=O)Nc3ccccc3F)c(=O)n2c(Nc2ccccc2C)n1,8.7,,
CCc1ccc(NC(=O)Cn2nc3n(Cc4ccc(F)cc4)c(=O)c4ccccc4n3c2=O)cc1,12.1,,
